“Also recorded” adds a separate entry of the source.

Data set [1] deals with PC-12 cells. The experiment in a line: NGF withdrawal in PC-12 cells. In kind it is cell-based, rat. On the procedure: […] cells (from a rat Pheochromocytoma) were cultured on poly-D-Lysine coated tissue culture plastic in DMEM containing 10% FBS and 5% Horse serum. To induce the neuronal phenotype in PC-12 cells, serum was removed and the cells were treated with NGF (50 ng/ml). Cells were grown for 7 days in the presence of the NGF then used for experiments.
PC-12 cells were cultured as described above in a 96 well poly-d-lysine coated multi-well plate and treated with rhEPO (1 pm to 10 nm) for 24 hr prior to NGF withdrawal. On the day of the experiment the cells were washed with buffer 3 times to remove NGF and then cultured in fresh media without NGF. Immediately following NGF washout cells were counted (t=0) to determine the number of living cells. Cell viability was based on morphological characteristics including phase brightness, presence of axons, and absence of blebbing. Cell counts were performed at 12 hr, 24 hr, 48 hr and 72 hr and the number of viable cells were scored.

Data set [2] relates to bclXL. The experiment in a line: EPO induced gene expression in PC12 cells, quantitative RT-PCR (bclXL). In kind it is cell-based, rat. The note with it: PC-12 cells. Here is the method:
(§1) PC-12 cells (from a rat Pheochromocytoma) were cultured on poly-D-Lysine coated tissue culture plastic in DMEM containing 10% FBS and 5% Horse serum. To induce the neuronal phenotype in PC-12 cells, serum was removed and the cells were treated with NGF (50 ng/ml). Cells were grown for 7 days in the presence of the NGF then used for experiments.
PC-12 cells were cultured as described in Example 1 in a 10 cm poly-D-lysine coated tissue culture dish. Cells were incubated in the presence of 1 U/ml of EPO for 24 hr. Total RNA was then isolated using a Qiagen RNAeasy mini prep kit and used for RT-PCR.
(§2) Real time reverse transcription and PCR were performed in a single reaction using a light cycler and an RNA amplification kit from Roche Molecular Biochemicals. RNA was quantitated and added in equal amounts to reaction mix that includes the dsDNA specific dye SYBR green I. Specific PCR reaction products are quantitated by detecting the amount of fluorescence in the reaction at each PCR cycle. Final analysis was performed using the data analysis software included with the light cycler instrument.

The nature of data set [3]: Plasma determinations by EPO ELISA. In kind it is in vivo, rat. To be noted: terminal sample. An excerpt:
Plasma Determinations: Blood samples were collected from each rat via the orbital sinus at the time of sacrifice. Plasma was separated out, frozen and analyzed by EPO ELISA for determination of plasma concentration (U/ml).
(In general: An ELISA detects its analyte on a solid surface through an enzyme-linked reagent.)

Data set [4] concerns rat cerebral cortical cultures. Kind of data set: Neurite outgrowth assay (MAP2-FITC immunofluorescence), cortical cultures. In kind it is cell-based. The source says: Dissociated hippocampal and cortical cell cultures were established from embryonic day 18 rat fetuses as previously described (Mattson et al., 1994). Briefly, fetuses were removed via cesarean section from pregnant moms (Sprague-Dawley) anesthetized with halothane according to the AVMA Panel on Euthanasia. Pups were decapitated and the brains were removed and placed in HEPES-buffered Hank's Balanced Salt solution (HBSS; Gibco). The hippocampi and cortices were dissected out and pooled according to tissue-type. Tissue was trypsinized for 15 min (1 mg/ml trypsin-HBSS; Worthington), rinsed with fresh HBSS, incubated in trypsin inhibitor (1 mg/ml; Sigma) for 5 min, rinsed again with fresh HBSS and then triturated in 1 ml fresh HBSS with a fire-polished glass pipette. Dissociated cells were seeded at 30,000 cells/well onto poly-D-lysine coated 96-well plates (Collaborative BioScience). Each well contained 100 μl of Eagle's Minimal Essential Media (MEM; Gibco) supplemented with 26 mM NaHCO3 (Sigma), 56 mM glucose (Sigma), 15 mM KCl (Sigma), 1 mM sodium pyruvate (Sigma), 1.1 mM L-glutamine (Sigma), 10% (v/v) heat-inactivated fetal bovine serum (Hyclone), and 0.001% gentamicin sulfate (Sigma) (pH 7.4). Cells were allowed to attach for 24 h in a humidified 37° C. 5% CO2 incubator before experimental treatment. The culture media was aspirated and exchanged with fresh media every three days.
Twenty-four hours after plating, cultures were treated with vehicle (PBS+0.1% BSA), 100 ng of various growth factors (brain derived neurotrophic factor (BDNF; Promega), glial-derived neurotrophic factor (GDNF; Promega), nerve growth factor (NGF; Boehringer Mannheim), basic fibroblast growth factor (bFGF; Boehringer Mannheim), insulin-like growth factor-1 (IGF-1; Boehringer Mannheim), neurotrophin-3 (NT3; Calbiochem), neurotrophin-4 (NT4; Calbiochem), ciliary neurotrophic factor (CNTF; Calbiochem), epidermal growth factor (EGF; Calbiochem), vascular endothelial growth factor (VEGF; Calbiochem)), or rhEPO (prepared same as above; 10 fM-10 nM)). Each treatment condition was run in quadruplicate or octuplicate. On the third day in culture, the media was aspirated off and replaced with fresh media and test compound. At one week in culture, the cells were fixed with 10% phosphate-buffered formalin for 15 min, then rinsed with DPBS (Sigma) and placed in blocking serum for 30 min (horse serum; 1:50 dilution in DPBS; Vector Labs). Cultures were rinsed again with DPBS and then incubated in primary antibody for 2 hr (microtubule-associated protein-2 (MAP-2) is a selective marker for dendritic processes; anti-mouse monoclonal (Chemicon); 1:1000 dilution of MAP-2 in antibody diluent (Zymed)). Negative control wells were incubated in antibody diluent alone. Background signal was determined by blank wells (cell-free) incubated with or without antibody. Cultures were rinsed again with DPBS and then placed in fluorescein for 1 hr (FITC; anti-mouse IgG; rat adsorbed; 1:50 dilution in DPBS; Vector Labs). Cultures were rinsed a final time with DPBS and then the plates were read on a Cytofluor 4000 fluorescence plate reader. Neurite outgrowth was expressed as percent change from control (vehicle; mean fluorescence±SD).
Dissociated hippocampal and cortical cell cultures were established from embryonic day 18 rat fetuses as previously described (Mattson et al., 1994). Briefly, fetuses were removed via cesarean section from pregnant moms (Sprague-Dawley) anesthetized with halothane according to the AVMA Panel on Euthanasia. Pups were decapitated and the brains were removed and placed in HEPES-buffered Hank's Balanced Salt solution (HBSS; Gibco). The hippocampi and cortices were dissected out and pooled according to tissue-type. […]

Data set [5] has as its system bak. Kind of data set: EPO induced gene expression in PC12 cells, quantitative RT-PCR (bak). In kind it is cell-based, rat. To be noted: PC-12 cells. Here is the method: as §1
PC-12 cells were cultured as described in Example 1 in a 10 cm poly-D-lysine coated tissue culture dish. […] Total RNA was then isolated using a Qiagen RNAeasy mini prep kit and used for RT-PCR.
as §2

Where [6] appears, read: 1 nm EPO for 24 hr (FIG. 3 legend).

With “rhEPO: purified, recombinant human EPO (rhEPO), currently formulated and distributed under the trademarks of EPREX, ERYPO, or PROCRIT”, the “neuroprotective effect at 1 nm, growth factor withdrawal” value in data set [1] (1 nm) was “no significant effect”. In addition, the “peak / optimum concentration for the neuroprotective effect, NGF withdrawal” value in data set [1] (24 hr pre-treatment before NGF withdrawal) came out at 10 pm. Besides, the “viable cells / cell death after NGF withdrawal (in words)” value in data set [1] (24 hr pre-treatment, 12 hr, 24 hr, 48 hr and 72 hr after withdrawal, listed as EPO) is on record as “significant decrease in cell death; also recorded: increased the number of viable cells at each time point”. The “increase in the expression of the anti-apoptotic gene bclXL” value in data set [2] (setting [6]) and in data set [2] (EPO 1 U/ml for 24 hr) was 6 fold throughout. In data set [3] (continuous infusion), the “plasma concentrations, Study I” value is “correlated with the protective effect”. Also, the “plasma concentrations, Study II” value in data set [3] (single iv bolus 1000, 2500 or 5000 U/kg) was “low in each group”. Moreover, the “neurite outgrowth response over control, cortical cultures” value in data set [4] (Example 3, one week in culture) is 15-29%. In data set [4] (figure legends), the “neurite outgrowth in rat cerebral cortical cultures (in words)” value is recorded as “promotes neurite outgrowth”. In data set [4] (growth factors at 100 ng), the “ability to increase neurite outgrowth in cortical cultures compared with known growth factors” value is “greater than or equal to that of known growth factors”. For the same substance, in data set [5] (setting [6]), the “decrease in the expression of the pro-apoptotic Bak” value is “greater than 5 fold”. Further, the “decrease in the expression of the pro-apoptotic gene bak” value in data set [5] (EPO 1 U/ml for 24 hr) is on record as 5 fold.

The values are drawn from patent publication US20090170759A1, “NEUROPROTECTIVE PEPTIDES” (priority 2007, published 2009).
